According to patent US20160264593A1 (priority 2013, published 2016):
“And” between values parts separate entries of the source, which are not always exact repeats. Identical values can stand only once.

Assay: Pharmacokinetic study of 151 (and 100) in SD rats, iv and oral; plasma
Details: for AUC0-t of 151 / AUC0-∞ of 151 / CL of 151 / MRT of 151 / T1/2 of 151 / Vss of 151 / Cmax of 151: plasma
Description: A pharmacokinetic study of 151 was conducted in SD rats. The study consisted of two dose levels at 1.0 (iv) and 10 (oral) mg/kg. The blood samples were collected at predetermined times from rats and centrifuged to separate plasma. An LC/MS/MS method was developed to determine the test article in plasma samples. The pharmacokinetic parameters of 151 following iv and oral administration to SD rats were calculated. The absolute bioavailability was evaluated.
The final concentration of the test article was 0.2 mg/mL for iv administration and 1.0 mg/mL for oral administration. The test article solutions were administered using the most recent body weight for each animal.
Blood (approximately 0.3 mL) were collected via orbital plexus into tubes containing sodium heparin at 0.25, 0.5, 1, 2, 3, 5, 7, 9, and 24 hours after oral administration; at 5 min, 15 min, 0.5, 1, 2, 3, 5, 7, 9 and 24 hours after iv administration. Samples were centrifuged for 5 min, at 4° C. with the centrifuge set at 11,000 rpm to separate plasma. The obtained plasma samples were stored frozen at a temperature of about −70° C. until analysis.
Frozen plasma samples were thawed at room temperature and vortexed thoroughly. With a pipette, an aliquot (30 μL) of plasma was transferred into a 1.5-mL conical polypropylene tube. To each sample, 160 μL of acetonitrile were added. The samples were then vigorously vortex-mixed for 1 min. After centrifugation at 11000 rpm for 5 min, a 15 μL aliquot of the supernatant was injected into the LC-MS/MS system for analysis.
Calibration standards were prepared by spiking 30 μL of the 151 standard solutions into 30 μL of heparinized blank rat plasma. The nominal standard concentrations in the standard curve were 1.00, 3.00, 10.0, 30.0, 100, 300, 1000 and 3000 ng/mL.
The analysis was performed using an LC-MS/MS system consisting of the following components—HPLC system: Agilent 1200 series instrument consisting of G1312B vacuum degasser, G1322A binary pump, G1316B column oven and G1367D autosampler (Agilent, USA); MS/MS system: Agilent 6460 triple quadrupole mass spectrometer, equipped with an APCI Interface (Agilent, USA); Data system: MassHunter Software (Agilent, USA).
Chromatographic separation was carried out at room temperature—Analytical column: C8 column (4.6 mm×150 mm I.D., 5 μm, Agilent, USA); Mobile phase: Acetonitrile:10 mM ammonium acetate (75:25, v/v); Flow rate: 0.80 mL/min; Injection volume: 15 μL.
The mass spectrometer was operated in the positive mode. Ionization was performed applying the following parameters: gas temperature, 325° C.; vaporizer temperature, 350° C.; gas flow, 4 L/min; nebulizer, 20 psi; capillary voltage, 4500 V; corona current, 4 μA. 151 was detected using MRM of the transitions m/z 283→m/z 123 and m/z 283→m/z 251, simultaneously. The optimized collision energies of 25 eV and 10 eV were used for m/z 123 and m/z 251, respectively.
Quantification was achieved by the external standard method. Concentrations of the test article were calculated using a weighted least-squares linear regression (W=1/x^2).
The pharmacokinetic parameters were evaluated using WinNonlin version 5.3 (Pharsight Corp., Mountain View, Calif., USA), assuming a non-compartmental model for drug absorption and distribution. • AUC0-t is the area under the plasma concentration-time curve from time zero to last sampling time, calculated by the linear trapezoidal rule. • AUC0-∞ is the area under the plasma concentration-time curve from time zero extrapolating to infinity. • T1/2 is the elimination half-life associated with the terminal (log-linear) elimination phase, which is estimated via linear regression of time vs. log concentrations. • CL is the total body clearance. • Vss is the volume of distribution at steady-state.

[1] = 151 IV 1.0 mg/kg, SD rats, individual, 1 mg/kg
[2] = 151 IV 1.0 mg/kg, SD rats, mean
[3] = 151 PO 10 mg/kg, SD rats, individual, 10 mg/kg

COC(=O)C1C2CCC(O2)C1C(=O)N1CCN(C)CC1 (centres unmarked) [Compound 151]
151 plasma concentration (151 IV 1.0 mg/kg, SD rats, 0.083 h, individual, 1 mg/kg): 1677 ng/mL and 1301 ng/mL
151 plasma concentration (151 IV 1.0 mg/kg, SD rats, 0.083 h, mean): 1489 ng/mL
151 plasma concentration (151 IV 1.0 mg/kg, SD rats, 0.250 h, individual, 1 mg/kg): 1160 ng/mL and 949 ng/mL
151 plasma concentration (151 IV 1.0 mg/kg, SD rats, 0.250 h, mean): 1055 ng/mL
151 plasma concentration (151 IV 1.0 mg/kg, SD rats, 0.50 h, individual, 1 mg/kg): 760 ng/mL and 807 ng/mL
151 plasma concentration (151 IV 1.0 mg/kg, SD rats, 0.50 h, mean): 683 ng/mL
151 plasma concentration (151 IV 1.0 mg/kg, SD rats, 1.0 h, individual, 1 mg/kg): 381 ng/mL and 314 ng/mL
151 plasma concentration (151 IV 1.0 mg/kg, SD rats, 1.0 h, mean): 348 ng/mL
151 plasma concentration (151 IV 1.0 mg/kg, SD rats, 2.0 h, individual, 1 mg/kg): 95.8 ng/mL and 103 ng/mL
151 plasma concentration (151 IV 1.0 mg/kg, SD rats, 2.0 h, mean): 99.6 ng/mL
151 plasma concentration (151 IV 1.0 mg/kg, SD rats, 3.0 h, individual, 1 mg/kg): 39.6 ng/mL and 28.1 ng/mL
151 plasma concentration (151 IV 1.0 mg/kg, SD rats, 3.0 h, mean): 33.8 ng/mL
151 plasma concentration (151 IV 1.0 mg/kg, SD rats, 5.0 h, individual, 1 mg/kg): 9.75 ng/mL and 3.63 ng/mL
151 plasma concentration (151 IV 1.0 mg/kg, SD rats, 5.0 h, mean): 6.69 ng/mL
151 plasma concentration (151 IV 1.0 mg/kg, SD rats, 7.0 h, individual, 1 mg/kg): 12.2 ng/mL and 1.83 ng/mL
151 plasma concentration (151 IV 1.0 mg/kg, SD rats, 7.0 h, mean): 7.02 ng/mL
151 plasma concentration (151 IV 1.0 mg/kg, SD rats, 9.0 h, individual): 2.01 ng/mL
151 plasma concentration (151 IV 1.0 mg/kg, SD rats, 9.0 h, individual, 1 mg/kg): BLQ
151 plasma concentration (151 IV 1.0 mg/kg, SD rats, 9.0 h, mean): 1.00 ng/mL
151 plasma concentration (151 IV 1.0 mg/kg, SD rats, 24 h, individual): BLQ
conversion of 151 to 100 in plasma (statement) (151 PO 10 mg/kg and iv 1.0 mg/kg): converted to LB100
151 plasma concentration (151 PO 10 mg/kg, SD rats, 0.25 h, individual, 10 mg/kg): 2231 ng/mL and 2029 ng/mL and 2731 ng/mL
151 plasma concentration (151 PO 10 mg/kg, SD rats, 0.25 h, mean): 2330 ng/mL
151 plasma concentration (151 PO 10 mg/kg, SD rats, 0.50 h, individual, 10 mg/kg): 2451 ng/mL and 3934 ng/mL and 3343 ng/mL
151 plasma concentration (151 PO 10 mg/kg, SD rats, 0.50 h, mean): 3243 ng/mL
151 plasma concentration (151 PO 10 mg/kg, SD rats, 1.0 h, individual, 10 mg/kg): 2204 ng/mL and 2581 ng/mL and 2538 ng/mL
151 plasma concentration (151 PO 10 mg/kg, SD rats, 1.0 h, mean): 2441 ng/mL
151 plasma concentration (151 PO 10 mg/kg, SD rats, 2.0 h, individual, 10 mg/kg): 1100 ng/mL and 1237 ng/mL and 1582 ng/mL
151 plasma concentration (151 PO 10 mg/kg, SD rats, 2.0 h, mean): 1306 ng/mL
151 plasma concentration (151 PO 10 mg/kg, SD rats, 3.0 h, individual, 10 mg/kg): 521 ng/mL and 660 ng/mL and 794 ng/mL
151 plasma concentration (151 PO 10 mg/kg, SD rats, 3.0 h, mean): 658 ng/mL
151 plasma concentration (151 PO 10 mg/kg, SD rats, 5.0 h, individual, 10 mg/kg): 125 ng/mL and 99.4 ng/mL and 192 ng/mL
151 plasma concentration (151 PO 10 mg/kg, SD rats, 5.0 h, mean): 139 ng/mL
151 plasma concentration (151 PO 10 mg/kg, SD rats, 7.0 h, individual, 10 mg/kg): 42.6 ng/mL and 20.7 ng/mL and 68.0 ng/mL
151 plasma concentration (151 PO 10 mg/kg, SD rats, 7.0 h, mean): 43.8 ng/mL
151 plasma concentration (151 PO 10 mg/kg, SD rats, 9.0 h, individual, 10 mg/kg): 52.1 ng/mL and 38.2 ng/mL and 66.1 ng/mL
151 plasma concentration (151 PO 10 mg/kg, SD rats, 9.0 h, mean): 52.1 ng/mL
151 plasma concentration (151 PO 10 mg/kg, SD rats, 24 h, individual): BLQ
F of 151 (151 PO 10 mg/kg, SD rats, mean): 54.6%
conversion to endothal in the plasma (statement) (151 administered to rats): converted to endothal
mean clearance of 151 from rat plasma (151 iv 1.0 mg/kg): 14.3 mL/min/kg
volume of distribution at steady state of 151 (151 iv 1.0 mg/kg): 0.736 L/kg
elimination half-life of 151 (151 iv 1.0 mg/kg (n=2)): 0.89 h
mean half-life of 151 (151 oral 10 mg/kg (n=3)): 1.26 h
time of peak plasma concentration of 151 (151 oral 10 mg/kg (n=3)): 0.5 h
absolute bioavailability (F) of 151 (oral 10 mg/kg, based on AUC0-∞): 54.6%
AUC0-t of 151 [1]: 1293 ng·h/mL and 1045 ng·h/mL
AUC0-∞ of 151 [1]: 1309 ng·h/mL and 1047 ng·h/mL
CL of 151 [1]: 12.7 mL/min/kg and 15.9 mL/min/kg
MRT of 151 [1]: 0.91 h and 0.81 h
T1/2 of 151 [1]: 0.91 h and 0.87 h
Vss of 151 [1]: 0.696 L/kg and 0.775 L/kg
AUC0-t of 151 [2]: 1169 ng·h/mL
AUC0-∞ of 151 [2]: 1178 ng·h/mL
CL of 151 [2]: 14.3 mL/min/kg
MRT of 151 [2]: 0.86 h
T1/2 of 151 [2]: 0.89 h
Vss of 151 [2]: 0.736 L/kg
AUC0-t of 151 [3]: 5399 ng·h/mL and 6423 ng·h/mL and 7199 ng·h/mL
AUC0-∞ of 151 [3]: 5499 ng·h/mL and 6484 ng·h/mL and 7328 ng·h/mL
Cmax of 151 [3]: 2451 ng/mL and 3934 ng/mL and 3343 ng/mL
MRT of 151 [3]: 1.86 h and 1.62 h and 1.95 h
T1/2 of 151 [3]: 1.33 h and 1.10 h and 1.35 h
AUC0-t of 151 (151 PO 10 mg/kg, SD rats, mean): 6340 ng·h/mL
AUC0-∞ of 151 (151 PO 10 mg/kg, SD rats, mean): 6437 ng·h/mL
Cmax of 151 (151 PO 10 mg/kg, SD rats, mean): 3243 ng/mL
MRT of 151 (151 PO 10 mg/kg, SD rats, mean): 1.81 h
T1/2 of 151 (151 PO 10 mg/kg, SD rats, mean): 1.26 h
